Values of other authors, collected in patent US12285413B2 (priority 2020, dated 2025).

What was measured:
SARS-CoV [1] = settings: multiple in vitro systems, including primary human airway epithelial cell cultures
MERS-CoV = settings: multiple in vitro systems, including primary human airway epithelial cell cultures
SARS-CoV [2] = settings: mouse, prophylactic and early therapeutic administration
glucocorticoid receptor = glucocorticoid receptor (Homo sapiens, UniProt P04150); settings: relative to cortisol
Chain of glucocorticoid receptor (P04150 whole entry): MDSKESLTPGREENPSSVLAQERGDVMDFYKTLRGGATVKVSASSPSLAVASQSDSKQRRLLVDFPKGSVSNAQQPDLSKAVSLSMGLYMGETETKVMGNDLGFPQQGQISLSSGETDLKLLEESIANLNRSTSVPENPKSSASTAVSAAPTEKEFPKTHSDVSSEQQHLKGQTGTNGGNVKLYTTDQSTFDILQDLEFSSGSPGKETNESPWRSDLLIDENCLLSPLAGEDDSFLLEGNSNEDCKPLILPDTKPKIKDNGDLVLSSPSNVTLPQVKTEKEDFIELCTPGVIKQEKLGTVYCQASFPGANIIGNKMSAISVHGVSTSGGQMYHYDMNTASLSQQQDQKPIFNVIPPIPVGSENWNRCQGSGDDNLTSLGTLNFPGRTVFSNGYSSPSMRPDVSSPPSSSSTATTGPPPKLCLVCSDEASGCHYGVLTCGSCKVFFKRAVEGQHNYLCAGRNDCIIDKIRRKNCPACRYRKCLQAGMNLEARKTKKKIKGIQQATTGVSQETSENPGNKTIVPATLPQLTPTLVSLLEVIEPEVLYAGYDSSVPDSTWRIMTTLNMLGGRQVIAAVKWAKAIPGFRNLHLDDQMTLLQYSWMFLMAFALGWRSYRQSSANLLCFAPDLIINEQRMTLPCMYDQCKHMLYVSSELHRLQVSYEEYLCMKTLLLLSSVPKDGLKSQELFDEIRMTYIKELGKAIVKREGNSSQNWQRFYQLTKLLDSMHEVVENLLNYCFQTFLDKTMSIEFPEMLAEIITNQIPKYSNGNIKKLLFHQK

In the case of `CCN(CCO)CCCC(C)Nc1ccnc2cc(Cl)ccc12` (stereo not shown) [Hydroxychloroquine], the “effect on coronavirus replication in in-vitro systems” value (coronavirus) is given as “inhibitory effects”.

In the case of `CCC(CC)COC(=O)[C@H](C)N[P@](=O)(OC[C@H]1O[C@@](C#N)(c2ccc3c(N)ncnn23)[C@H](O)[C@@H]1O)Oc1ccccc1` [Remdesivir], the “EC50, inhibition of SARS-CoV replication” value (SARS-CoV [1]) is given as “submicromolar”, the “EC50, inhibition of MERS-CoV replication” value (MERS-CoV) is given as “submicromolar” and the lung viral load (SARS-CoV [2]) is given as “reduced lung viral load”. For the same compound, the respiratory function (SARS-CoV [2]) was “improved respiratory function” and the “antiviral activity in SARS-CoV-2 in-vitro models” value (SARS-CoV-2) was “antiviral activity”.

In the case of `C[C@@H]1C[C@H]2[C@@H]3CCC4=CC(=O)C=C[C@]4(C)[C@@]3(F)[C@@H](O)C[C@]2(C)[C@@]1(O)C(=O)CO` [dexamethasone], the “anti-inflammatory and immunosuppressive potency versus cortisol” value (glucocorticoid receptor) is given as “approximately 30 times”.
